Earlier results as cited in patent US12728103B2, “Pharmaceutical composition comprising mitotane administered orally for treatment of adrenocortical carcinoma and Cushing's syndrome” (priority 2019, dated 2026).

concentration in fat relative to plasma (accumulation in fat): ~200 times
product found in the faeces in an unmetabolized form (humans, conventional tablet): 60%
treatment time to reach the effective plasma concentration (patients, average): 3 months
Structure (SMILES): Clc1ccc(C(c2ccccc2Cl)C(Cl)Cl)cc1 (centres unmarked) [Mitotane, ortho,para'dichloro-diphenyl-dichloroethane]
mitotaemia at which neurological disorders (ataxia, depressive syndrome) occur (patients): exceeds 20 mg/L
plasma concentration to be reached to be effective (patients): at least 14 mg/L
